Our source for the zone of inhibition and MIC values is ChEMBL document CHEMBL3045421, “5-Nitro-heteroarylidene analogs of 2-thiazolylimino-4-thiazolidinones as a novel series of antibacterial agents” (2013).

Holding throughout (format): functional
Assay [1] has as its system Helicobacter pylori. As to the kind of experiment: Antibacterial activity against Helicobacter pylori strain 2 assessed as diameter of growth inhibition zone at 64 ug/disk after 3-5 days by filter paper disk diffusion method. The settings on record: read-out: DIZ. On the technique in general: Agar diffusion results depend on both activity and mobility in agar.
For a further assay, the system named is Escherichia coli. The experiment in a line: microbe, parasite or virus in culture. The settings on record: ATCC 8739, 24 h.
In assay [2] the test system is Helicobacter pylori. The experiment in a line: Antibacterial activity against Helicobacter pylori strain 3 assessed as diameter of growth inhibition zone at 64 ug/disk after 3-5 days by filter paper disk diffusion method. The settings on record: read-out: DIZ.
The test system of assay [3] is Helicobacter pylori. As to the kind of experiment: Antibacterial activity against Helicobacter pylori strain 1 assessed as diameter of growth inhibition zone at 32 ug/disk after 3-5 days by filter paper disk diffusion method. The conditions noted are these: read-out: DIZ.
Assay [4] deals with Helicobacter pylori. As to the kind of experiment: Antibacterial activity against Helicobacter pylori strain 3 assessed as diameter of growth inhibition zone at 32 ug/disk after 3-5 days by filter paper disk diffusion method. The conditions noted are these: read-out: DIZ.
A further assay concerns Staphylococcus aureus. As to the kind of experiment: microbe, parasite or virus in culture. The settings on record: ATCC 6538p, 24 h.
Assay [5] has as its system Helicobacter pylori. The experiment in a line: Antibacterial activity against Helicobacter pylori strain 3 assessed as diameter of growth inhibition zone at 8 ug/disk after 3-5 days by filter paper disk diffusion method. The conditions noted are these: read-out: DIZ.
Another assay relates to Klebsiella pneumoniae. The experiment in a line: microbe, parasite or virus in culture. The settings on record: ATCC 10031, 24 h.
Assay [6] relates to Helicobacter pylori. The experiment in a line: Antibacterial activity against Helicobacter pylori strain 1 assessed as diameter of growth inhibition zone at 64 ug/disk after 3-5 days by filter paper disk diffusion method. The conditions noted are these: read-out: DIZ.
Assay [7] has as its system Helicobacter pylori. As to the kind of experiment: Antibacterial activity against Helicobacter pylori strain 1 assessed as diameter of growth inhibition zone at 16 ug/disk after 3-5 days by filter paper disk diffusion method. The conditions noted are these: read-out: DIZ.
For assay [8], the system named is Helicobacter pylori. The experiment in a line: Antibacterial activity against Helicobacter pylori strain 2 assessed as diameter of growth inhibition zone at 32 ug/disk after 3-5 days by filter paper disk diffusion method. The settings on record: read-out: DIZ.
The subject of another assay is Bacillus subtilis. The experiment in a line: microbe, parasite or virus in culture. The conditions noted are these: ATCC 6633, 24 h.
Another assay has as its system Pseudomonas aeruginosa. The experiment in a line: microbe, parasite or virus in culture. The settings on record: ATCC 9027, 24 h.
Assay [9] relates to Helicobacter pylori. As to the kind of experiment: Antibacterial activity against Helicobacter pylori strain 1 assessed as diameter of growth inhibition zone at 8 ug/disk after 3-5 days by filter paper disk diffusion method. The conditions noted are these: read-out: DIZ.
In assay [10] the test system is Helicobacter pylori. As to the kind of experiment: Antibacterial activity against Helicobacter pylori strain 2 assessed as diameter of growth inhibition zone at 8 ug/disk after 3-5 days by filter paper disk diffusion method. The conditions noted are these: read-out: DIZ.
In assay [11] the test system is Helicobacter pylori. The experiment in a line: Antibacterial activity against Helicobacter pylori strain 2 assessed as diameter of growth inhibition zone at 16 ug/disk after 3-5 days by filter paper disk diffusion method. The conditions noted are these: read-out: DIZ.
Assay [12] deals with Staphylococcus epidermidis. The experiment in a line: microbe, parasite or virus in culture. The settings on record: ATCC 12228, 24 h.
Description: Antibacterial activity against Staphylococcus epidermidis ATCC 12228 assessed as growth inhibition after 24 hr by microdilution method
Assay [13] deals with Helicobacter pylori. As to the kind of experiment: Antibacterial activity against Helicobacter pylori strain 3 assessed as diameter of growth inhibition zone at 16 ug/disk after 3-5 days by filter paper disk diffusion method. The conditions noted are these: read-out: DIZ.

≈ marks a conversion by molar mass, not a printed value.

Description for Bacillus subtilis: Antibacterial activity against Bacillus subtilis ATCC 6633 assessed as growth inhibition after 24 hr by microdilution method
Description for Escherichia coli: Antibacterial activity against Escherichia coli ATCC 8739 assessed as growth inhibition after 24 hr by microdilution method
Description for Klebsiella pneumoniae: Antibacterial activity against Klebsiella pneumoniae ATCC 10031 assessed as growth inhibition after 24 hr by microdilution method
Description for Pseudomonas aeruginosa: Antibacterial activity against Pseudomonas aeruginosa ATCC 9027 assessed as growth inhibition after 24 hr by microdilution method
Description for Staphylococcus aureus: Antibacterial activity against Staphylococcus aureus ATCC 6538p assessed as growth inhibition after 24 hr by microdilution method

Consider `O=C1N/C(=N\c2nccs2)S/C1=C\c1ccc([N+](=O)[O-])o1`, for which the zone of inhibition at 64 µg/disc in the assay on Helicobacter pylori [1], in the assay on Helicobacter pylori [2] and with Helicobacter pylori [6] was more than 50 mm each time. Also, the MIC worked out at 1.56 µg/mL (≈ 4.84 µM) with Escherichia coli; 0.97 µg/mL (≈ 3.01 µM) with Staphylococcus aureus; 1.56 µg/mL (≈ 4.84 µM) in the assay with Klebsiella pneumoniae; 0.19 µg/mL (≈ 0.589 µM) in the assay with Bacillus subtilis; 0.39 µg/mL (≈ 1.21 µM) against Pseudomonas aeruginosa; 0.006 µg/mL (≈ 0.0186 µM) in assay [12]. Moreover, the zone of inhibition at 32 µg/disc with Helicobacter pylori [3], in the assay with Helicobacter pylori [4] and in the assay on Helicobacter pylori [8] was more than 50 mm throughout. In addition, the zone of inhibition at 8 µg/disc with Helicobacter pylori [5], in the assay on Helicobacter pylori [9] and with Helicobacter pylori [10] was more than 50 mm throughout. Moreover, the zone of inhibition at 16 µg/disc with Helicobacter pylori [7], with Helicobacter pylori [11] and in the assay on Helicobacter pylori [13] was more than 50 mm throughout.

Take `O=C1N/C(=N\c2nc(-c3ccccc3)cs2)S/C1=C\c1ccc([N+](=O)[O-])o1`: the zone of inhibition at 64 µg/disc turned out to be 23 mm in the assay on Helicobacter pylori [1], 20 mm in the assay on Helicobacter pylori [2] and 20 mm in the assay on Helicobacter pylori [6]. The MIC with Escherichia coli was more than 100 µg/mL; in the assay with Staphylococcus aureus, 50 µg/mL (≈ 125 µM); against Klebsiella pneumoniae, more than 100 µg/mL; in the assay on Bacillus subtilis, 50 µg/mL (≈ 125 µM); with Pseudomonas aeruginosa, more than 100 µg/mL; in [12], 25 µg/mL (≈ 62.7 µM). In addition, the values for the zone of inhibition at 32 µg/disc with Helicobacter pylori [3], in the assay on Helicobacter pylori [4] and in the assay on Helicobacter pylori [8] were 15 mm, 18 mm and 18 mm, respectively. Further, the zone of inhibition at 8 µg/disc turned out to be 13 mm in the assay with Helicobacter pylori [5], 10 mm in the assay with Helicobacter pylori [9] and 10 mm in the assay with Helicobacter pylori [10]. Moreover, the zone of inhibition at 16 µg/disc in the assay on Helicobacter pylori [7] was 13 mm; in the assay on Helicobacter pylori [11] it was 12 mm; with Helicobacter pylori [13], 15 mm.

For the compound `COc1ccc(-c2csc(/N=C3\NC(=O)/C(=C/c4ccc([N+](=O)[O-])o4)S3)n2)cc1`, the zone of inhibition at 64 µg/disc was 20 mm with Helicobacter pylori [1], 26 mm in the assay with Helicobacter pylori [2] and 14 mm in the assay on Helicobacter pylori [6]. Also, the MIC against Escherichia coli is more than 100 µg/mL; with Staphylococcus aureus, 25 µg/mL (≈ 58.3 µM); in the assay on Klebsiella pneumoniae, more than 100 µg/mL; with Bacillus subtilis it was 12.5 µg/mL (≈ 29.2 µM); against Pseudomonas aeruginosa it was 100 µg/mL (≈ 233 µM); in assay [12], 12.5 µg/mL (≈ 29.2 µM). Also, the zone of inhibition at 32 µg/disc in the assay on Helicobacter pylori [3] was 12 mm; with Helicobacter pylori [4], 19 mm; with Helicobacter pylori [8], 19 mm. Further, the zone of inhibition at 8 µg/disc in the assay with Helicobacter pylori [5] is 12 mm; in the assay with Helicobacter pylori [9] it was not above 6 mm; in the assay with Helicobacter pylori [10] it was 15 mm. Further, the figures for the zone of inhibition at 16 µg/disc in the assay on Helicobacter pylori [7], with Helicobacter pylori [11] and in the assay with Helicobacter pylori [13] were 10 mm, 17 mm and 16 mm, respectively.

With `O=C1N/C(=N\c2nc3ccccc3s2)S/C1=C\c1ccc([N+](=O)[O-])o1`, the zone of inhibition at 64 µg/disc was 30 mm in the assay with Helicobacter pylori [1], 34 mm in the assay with Helicobacter pylori [2] and 33 mm in the assay with Helicobacter pylori [6]. Also, the MIC against Escherichia coli was 3.12 µg/mL (≈ 8.39 µM); against Staphylococcus aureus, 0.97 µg/mL (≈ 2.6 µM); in the assay on Klebsiella pneumoniae, 6.25 µg/mL (≈ 16.8 µM); against Bacillus subtilis it was 0.39 µg/mL (≈ 1.05 µM); with Pseudomonas aeruginosa it was more than 100 µg/mL; in [12], 0.39 µg/mL (≈ 1.05 µM). Further, the zone of inhibition at 32 µg/disc with Helicobacter pylori [3] was found to be 28 mm; in the assay on Helicobacter pylori [4], 30 mm; with Helicobacter pylori [8], 26 mm. Further, the zone of inhibition at 8 µg/disc in the assay with Helicobacter pylori [5] stood at 25 mm; in the assay with Helicobacter pylori [9], 20 mm; in the assay on Helicobacter pylori [10] it was 22 mm. For the same compound, the zone of inhibition at 16 µg/disc was found to be 24 mm in the assay with Helicobacter pylori [7], 24 mm with Helicobacter pylori [11] and 28 mm with Helicobacter pylori [13].

For `O=C1N/C(=N\c2nccs2)S/C1=C\c1ccc([N+](=O)[O-])s1`, the figures for the zone of inhibition at 64 µg/disc in the assay with Helicobacter pylori [1], in the assay with Helicobacter pylori [2] and in the assay on Helicobacter pylori [6] were 34 mm, 45 mm and 45 mm, respectively. For the same compound, the MIC in the assay with Escherichia coli is more than 100 µg/mL; against Staphylococcus aureus, 1.56 µg/mL (≈ 4.61 µM); against Klebsiella pneumoniae, more than 100 µg/mL; in the assay on Bacillus subtilis, 0.78 µg/mL (≈ 2.3 µM); in the assay with Pseudomonas aeruginosa, more than 100 µg/mL; in assay [12], 0.39 µg/mL (≈ 1.15 µM). In addition, the values for the zone of inhibition at 32 µg/disc with Helicobacter pylori [3], in the assay with Helicobacter pylori [4] and with Helicobacter pylori [8] were 42 mm, 40 mm and 30 mm, respectively. Also, the figures for the zone of inhibition at 8 µg/disc with Helicobacter pylori [5], in the assay on Helicobacter pylori [9] and in the assay on Helicobacter pylori [10] were 33 mm, 36 mm and 25 mm, respectively. The zone of inhibition at 16 µg/disc came to 40 mm with Helicobacter pylori [7], 28 mm in the assay with Helicobacter pylori [11] and 35 mm in the assay on Helicobacter pylori [13].
